pIC50: −log10 of the molar value.
Target: T1, Human immunodeficiency virus type 1 integrase (Human immunodeficiency virus 1, UniProt Q7ZJM1)
Assay: Inhibition of HIV1 recombinant integrase 3'-processing and strand transfer activity using 21-mer U5B/U5A duplex oligonucleotides after 1 hr
Settings: not given; call rule not given here

T1 sequence (Q7ZJM1 whole entry): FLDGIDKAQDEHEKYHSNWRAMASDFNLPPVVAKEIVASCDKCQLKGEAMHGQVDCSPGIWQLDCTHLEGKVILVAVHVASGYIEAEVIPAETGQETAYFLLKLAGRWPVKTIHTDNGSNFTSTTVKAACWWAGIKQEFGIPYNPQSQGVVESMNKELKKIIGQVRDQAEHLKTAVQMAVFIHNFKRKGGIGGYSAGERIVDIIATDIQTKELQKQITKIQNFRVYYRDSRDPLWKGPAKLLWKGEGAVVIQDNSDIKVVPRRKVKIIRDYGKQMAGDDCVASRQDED

Row | SMILES | IC50
1 | CCOC(=O)CC(=O)Nc1ccc(C)cc1[N+](=O)[O-] | Not Active
2 | CCOC(=O)CC(=O)Nc1ccccc1[N+](=O)[O-] | Not Active

Same assay, conditions: read-out: IC50

Row | SMILES | pIC50
3 | CCOC(=O)CC(=O)Nc1ccc(C(=O)O)cc1 | 5.70
4 | CCOC(=O)CC(=O)Nc1ccc2cccc(O)c2n1 | 4.38
5 | CCOC(=O)CC(=O)Nc1cc(C(=O)O)ccc1O | < 3.52
6 | CCOC(=O)CC(=O)NS(=O)(=O)c1ccc(C)cc1 | 3.30
7 | CCOC(=O)CC(=O)Nc1ccc(C)cc1 | 4.30
8 | Cc1ccc(NC(=O)CC(=O)O)c([N+](=O)[O-])c1 | < 4.00
9 | CCOC(=O)CC(=O)Nc1c(Cl)cccc1Cl | < 4.00
10 | CCOC(=O)CC(=O)NCc1ccc(F)cc1 | < 4.00

Target: T1, Human immunodeficiency virus type 1 integrase
Assay: Inhibition of HIV1 integrase
Settings: not given

Row | SMILES | pIC50
11 | Cc1ccc2c(O)c(C(=O)O)ccc2n1 | 4.33
12 | Cc1ccc2ccc(C(=O)O)c(O)c2n1 | < 4.00
